Data as given in patent publication US20260015350A1, “AZAQUINAZOLINE PAN-KRAS INHIBITORS” (Mirati Therapeutics, Inc., priority 2022, published 2026).

Key:
[1] = system: KRas-mediated phosphorylation of ERK in AsPC-1 cells; experiment: Inhibition of KRas-mediated phosphorylation of ERK (Cisbio HTRF pERK), AsPC-1 cells; assay type: cell-based; settings: Homo sapiens, ASPC1, AsPC-1 cells; HTRF pERK
Method in brief: (§1)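 HTRF readout of phospho-ERK in cell lysates after 3 hrs of compound exposure. Dosing: 10 uM top, 3-fold steps, 10 doses, final DMSO 0.8%. Min control: 0.2 uM Trametinib. Lysis ran 40 mins at 4° C, and antibody detection 2 hrs at room temperature.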

KRas^G12C = molecular target: T1, KRas^G12C (Homo sapiens, UniProt P01116, G12C); experiment: KRas binding assay (TR-FRET tracer displacement), KRas G12C; settings: TR-FRET tracer displacement, KRas G12C
T1 construct: Biotinylated KRas (corresponding to amino acids 1-169, produced at Accelegan Inc.); biotin (biotinylated); purchased Accelegan Inc
T1 sequence (P01116 1-169 isoform P01116-2 G12C): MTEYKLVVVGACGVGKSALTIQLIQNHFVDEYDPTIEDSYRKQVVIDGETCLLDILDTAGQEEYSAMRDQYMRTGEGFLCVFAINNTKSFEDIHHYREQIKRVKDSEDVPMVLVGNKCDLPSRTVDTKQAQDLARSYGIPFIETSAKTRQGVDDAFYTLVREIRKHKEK

KRas^G12R = molecular target: T2, KRas^G12R (Homo sapiens, UniProt P01116, G12R); experiment: KRas binding assay (TR-FRET tracer displacement), KRas G12R
T2 construct: Biotinylated KRas (corresponding to amino acids 1-169, produced at Accelegan Inc.); biotin (biotinylated); purchased Accelegan Inc
T2 sequence (P01116 1-169 isoform P01116-2 G12R): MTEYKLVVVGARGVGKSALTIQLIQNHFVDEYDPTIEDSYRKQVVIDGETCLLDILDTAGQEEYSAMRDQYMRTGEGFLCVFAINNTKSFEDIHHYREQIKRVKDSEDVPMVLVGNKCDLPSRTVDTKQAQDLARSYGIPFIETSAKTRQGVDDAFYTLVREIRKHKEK

[2] = system: KRas-mediated phosphorylation of ERK in A549 cells; experiment: Inhibition of KRas-mediated phosphorylation of ERK (Cisbio HTRF pERK), A549 cells; assay type: cell-based; settings: Homo sapiens, HTRF pERK
Method in brief: (§2)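 Min control wells contained 0.2 uM Trametinib, while test compounds ran as 10 doses (3-fold, top 10 uM; 0.8% DMSO final) on cells for 3 hrs. After 40 mins lysis at 4° C, lysates were probed with HTRF antibodies for 2 hrs at room temperature.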

[3] = system: KRas-mediated phosphorylation of ERK in HCT116 cells; experiment: Inhibition of KRas-mediated phosphorylation of ERK (Cisbio HTRF pERK), HCT116 cells; assay type: cell-based; settings: Homo sapiens, HCT-116, HTRF pERK
Method in brief: as §2

[4] = system: KRas-mediated phosphorylation of ERK in MKN1 cells; experiment: Inhibition of KRas-mediated phosphorylation of ERK (Cisbio HTRF pERK), MKN1 cells; assay type: cell-based; settings: Homo sapiens, MKN-1
Method in brief: (§3)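 Phospho-ERK is quantified by HTRF with the Advanced pERK kit. Cells go in at 6,000/well in RPMI plus 10% FBS overnight at 37° C. under 5% CO2, with a 4-hour covered room-temperature incubation ahead of the read.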

KRas^G12V = molecular target: T3, KRas^G12V (Homo sapiens, UniProt P01116, G12V); experiment: KRas binding assay (TR-FRET tracer displacement), KRas G12V
T3 construct: Biotinylated KRas (corresponding to amino acids 1-169, produced at Accelegan Inc.); biotin (biotinylated); purchased Accelegan Inc
T3 sequence (P01116 1-169 isoform P01116-2 G12V): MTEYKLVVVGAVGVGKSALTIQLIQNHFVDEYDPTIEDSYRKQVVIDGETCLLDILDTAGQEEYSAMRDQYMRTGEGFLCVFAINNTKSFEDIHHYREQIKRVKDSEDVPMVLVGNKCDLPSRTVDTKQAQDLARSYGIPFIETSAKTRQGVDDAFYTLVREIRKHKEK

[5] = system: KRas-mediated phosphorylation of ERK in H727 cells; experiment: Inhibition of KRas-mediated phosphorylation of ERK (Cisbio HTRF pERK), H727 cells; assay type: cell-based; settings: Homo sapiens, NCI-H727, H727 cells; HTRF pERK
Method in brief: as §1

[6] = system: KRas-mediated phosphorylation of ERK in PSN1 cells; experiment: Inhibition of KRas-mediated phosphorylation of ERK (Cisbio HTRF pERK), PSN1 cells; assay type: cell-based; settings: Homo sapiens
Method in brief: as §3

[7] = system: KRas-mediated phosphorylation of ERK in H460 cells; experiment: Inhibition of KRas-mediated phosphorylation of ERK (Cisbio HTRF pERK), H460 cells; assay type: cell-based; settings: Homo sapiens, NCI-H460, HTRF pERK
Method in brief: as §1

KRas^G12S = molecular target: T4, KRas^G12S (Homo sapiens, UniProt P01116, G12S); experiment: KRas binding assay (TR-FRET tracer displacement), KRas G12S; settings: TR-FRET tracer displacement, KRas G12S
T4 construct: Biotinylated KRas (corresponding to amino acids 1-169, produced at Accelegan Inc.); biotin (biotinylated); purchased Accelegan Inc
T4 sequence (P01116 1-169 isoform P01116-2 G12S): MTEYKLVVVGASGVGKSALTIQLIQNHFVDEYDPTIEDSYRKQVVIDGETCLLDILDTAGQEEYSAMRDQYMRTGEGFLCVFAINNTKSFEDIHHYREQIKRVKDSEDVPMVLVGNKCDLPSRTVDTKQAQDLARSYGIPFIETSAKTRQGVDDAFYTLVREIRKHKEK

KRas^G12D = molecular target: T5, KRas^G12D (Homo sapiens, UniProt P01116, G12D); experiment: KRas binding assay (TR-FRET tracer displacement), KRas G12D
T5 construct: Biotinylated KRas (corresponding to amino acids 1-169, produced at Accelegan Inc.); biotin (biotinylated); purchased Accelegan Inc
T5 sequence (P01116 1-169 isoform P01116-2 G12D): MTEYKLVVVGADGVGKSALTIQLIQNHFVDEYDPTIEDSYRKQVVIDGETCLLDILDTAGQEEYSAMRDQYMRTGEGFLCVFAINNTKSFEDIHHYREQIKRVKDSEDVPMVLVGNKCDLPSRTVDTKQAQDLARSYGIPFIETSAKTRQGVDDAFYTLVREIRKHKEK

[8] = system: KRas-mediated phosphorylation of ERK in H358 cells; experiment: Inhibition of KRas-mediated phosphorylation of ERK (Cisbio HTRF pERK), H358 cells; assay type: cell-based; settings: Homo sapiens, NCI-H358, HTRF pERK
Method in brief: as §1

KRas^WT = molecular target: T6, KRas^WT (Homo sapiens, UniProt P01116); experiment: KRas binding assay (TR-FRET tracer displacement), KRas WT; settings: TR-FRET tracer displacement, KRas WT
T6 construct: Biotinylated KRas (corresponding to amino acids 1-169, produced at Accelegan Inc.); biotin (biotinylated); purchased Accelegan Inc
T6 sequence (P01116 1-169 isoform P01116-2): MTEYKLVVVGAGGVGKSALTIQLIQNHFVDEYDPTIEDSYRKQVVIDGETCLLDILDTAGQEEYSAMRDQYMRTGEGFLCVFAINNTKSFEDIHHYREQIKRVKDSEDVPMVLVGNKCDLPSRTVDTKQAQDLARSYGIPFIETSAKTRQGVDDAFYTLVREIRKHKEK

Structure (SMILES)	IC50 [1] [nM]	IC50 (KRas^G12C) [nM]	IC50 (KRas^G12R) [nM]	IC50 [2] [nM]	IC50 [3] [nM]	IC50 [4] [nM]	IC50 (KRas^G12V) [nM]	IC50 [5] [nM]	IC50 [6] [nM]	IC50 [7] [nM]	IC50 (KRas^G12S) [nM]	IC50 (KRas^G12D) [nM]	IC50 [8] [nM]	IC50 (KRas^WT) [nM]
CCc1c(F)ccc2cc(O)cc(-c3ncc4c(N5CC[C@H]6C(=O)O[C@H]6C5)nc(OC[C@@]56CCCN5C[C@H](F)C6)nc4c3F)c12 [Example 802, 3-(7-(8-ethyl-7-fluoro-3-hydroxynaphthalen-1-yl)-8-fluoro-2-(((2R,7aS)-2-fluorotetrahydro-1H-pyrrolizin-7a(5H)-yl)methoxy)pyrido[4,3-d]pyrimidin-4-yl)-8-oxa-3-azabicyclo[4.2.0]octan-7-one]	> 10000	2	35	12	> 10000	> 10000	116	> 10000	> 10000	> 10000	2	189	32	–
CCc1c(F)ccc2cc(O)cc(-c3ncc4c(N5CC6CCC(CO)(C5)C6(F)F)nc(OC[C@@]56CCCN5C[C@H](F)C6)nc4c3F)c12 (stereo partly drawn) [Example 901, 4-(4-(8,8-difluoro-1-(hydroxymethyl)-3-azabicyclo[3.2.1]octan-3-yl)-8-fluoro-2-(((2R,7aS)-2-fluorotetrahydro-1H-pyrrolizin-7a(5H)-yl)methoxy)pyrido[4,3-d]pyrimidin-7-yl)-5-ethyl-6-fluoronaphthalen-2-ol]	2450	–	20	873	1400	19	60	2420	> 10000	368	–	99	623	–
CCc1c(F)ccc2cc(O)cc(-c3ncc4c(N5CC6CCC(C(=O)N(C)C)(C5)C6(F)F)nc(OC[C@@]56CCCN5C[C@H](F)C6)nc4c3F)c12 (stereo partly drawn) [Example 905, 3-(7-(8-ethyl-7-fluoro-3-hydroxynaphthalen-1-yl)-8-fluoro-2-(((2R,7aS)-2-fluorotetrahydro-1H-pyrrolizin-7a(5H)-yl)methoxy)pyrido[4,3-d]pyrimidin-4-yl)-8,8-difluoro-N,N-dimethyl-3-azabicyclo[3.2.1]octane-1-carboxamide]	4150	–	94	2610	6310	1140	394	7440	> 10000	1350	–	297	2700	–
CCc1c(F)ccc2cc(O)cc(-c3ncc4c(N5C[C@H]6CC[C@@](C(=O)NC)(C5)C6(F)F)nc(OC[C@@]56CCCN5C[C@H](F)C6)nc4c3F)c12 [Example 907, (1S,5R)-3-(7-(8-ethyl-7-fluoro-3-hydroxynaphthalen-1-yl)-8-fluoro-2-(((2R,7aS)-2-fluorotetrahydro-1H-pyrrolizin-7a(5H)-yl)methoxy)pyrido[4,3-d]pyrimidin-4-yl)-8,8-difluoro-N-methyl-3-azabicyclo[3.2.1]octane-1-carboxamide]	2040	–	18	827	1580	137	23	922	> 10000	590	–	88	325	–
C[C@@]1(O)CCCN(c2nc(OC[C@@]34CCCN3C[C@H](F)C4)nc3c(F)c(-c4ccc(F)c5sc(N)c(C#N)c45)ncc23)C1 [Example 912, 2-amino-7-fluoro-4-(8-fluoro-2-(((2R,7aS)-2-fluorotetrahydro-1H-pyrrolizin-7a(5H)-yl)methoxy)-4-((R)-3-hydroxy-3-methylpiperidin-1-yl)pyrido[4,3-d]pyrimidin-7-yl)benzo[b]thiophene-3-carbonitrile]	2310	–	85	2820	1830	504	69	3310	> 10000	2050	–	45	800	–
CCc1c(F)ccc2cc(O)cc(-c3ncc4c(N5CC6CCC(C5)S6)nc(OC[C@@]56CCCN5C[C@H](F)C6)nc4c3F)c12 [Example 922, 4-(4-(8-thia-3-azabicyclo[3.2.1]octan-3-yl)-8-fluoro-2-(((2R,7aS)-2-fluorotetrahydro-1H-pyrrolizin-7a(5H)-yl)methoxy)pyrido[4,3-d]pyrimidin-7-yl)-5-ethyl-6-fluoronaphthalen-2-ol]	1380	18	–	–	–	–	13	576	–	–	9	74	–	21

Compounds with a lower IC50 (KRas^G12V), results first:

IC50 [1] [nM]	IC50 (KRas^G12C) [nM]	IC50 (KRas^G12R) [nM]	IC50 [2] [nM]	IC50 [3] [nM]	IC50 [4] [nM]	IC50 (KRas^G12V) [nM]	IC50 [5] [nM]	IC50 [6] [nM]	IC50 [7] [nM]	IC50 (KRas^G12S) [nM]	IC50 (KRas^G12D) [nM]	IC50 [8] [nM]	IC50 (KRas^WT) [nM]	Structure (SMILES)
–	11	–	–	–	–	9	–	–	–	14	14	–	20	CCc1c(F)ccc2cc(O)cc(-c3nc4c5c(nc(OC[C@@]67CCCN6C[C@H](F)C7)nc5c3F)NCCO4)c12 [Example 803, 5-ethyl-6-fluoro-4-(4-fluoro-2-(((2R,7aS)-2-fluorotetrahydro-1H-pyrrolizin-7a(5H)-yl)methoxy)-9,10-dihydro-8H-7-oxa-1,3,6,10-tetraazacyclohepta[de]naphthalen-5-yl)naphthalen-2-ol]
250	–	< 2	355	1010	196	< 2	836	> 10000	252	–	< 2	56	–	CCc1c(F)ccc2cc(O)cc(-c3ncc4c(N5CCOCC6(CNC(=O)N6)C5)nc(OC[C@@]56CCCN5C[C@H](F)C6)nc4c3F)c12 (stereo partly drawn) [Example 898, 10-(7-(8-ethyl-7-fluoro-3-hydroxynaphthalen-1-yl)-8-fluoro-2-(((2R,7aS)-2-fluorotetrahydro-1H-pyrrolizin-7a(5H)-yl)methoxy)pyrido[4,3-d]pyrimidin-4-yl)-7-oxa-1,3,10-triazaspiro[4.6]undecan-2-one]
30	–	< 2	112	167	4	< 2	121	2510	53	–	< 2	21	–	CCc1c(F)ccc2cc(O)cc(-c3ncc4c(N5CCC[C@@](C)(O)C5)nc(OC[C@@]56CCCN5[C@H](COCC5CCCC5)CC6)nc4c3F)c12 [Example 904, (R)-1-(2-(((3S,7aS)-3-((cyclopentylmethoxy)methyl)tetrahydro-1H-pyrrolizin-7a(5H)-yl)methoxy)-7-(8-ethyl-7-fluoro-3-hydroxynaphthalen-1-yl)-8-fluoropyrido[4,3-d]pyrimidin-4-yl)-3-methylpiperidin-3-ol]
526	–	10	226	231	17	3	527	> 10000	108	–	11	114	–	CCc1c(F)ccc2cc(O)cc(-c3ncc4c(N5CC6CCC(CC(=O)N(C)C)(C6)C5)nc(OC[C@@]56CCCN5C[C@H](F)C6)nc4c3F)c12 (stereo partly drawn) [Example 911, 2-(3-(7-(8-ethyl-7-fluoro-3-hydroxynaphthalen-1-yl)-8-fluoro-2-(((2R,7aS)-2-fluorotetrahydro-1H-pyrrolizin-7a(5H)-yl)methoxy)pyrido[4,3-d]pyrimidin-4-yl)-3-azabicyclo[3.2.1]octan-1-yl)-N,N-dimethylacetamide]
94	–	< 2	51	60	14	< 2	74	1550	36	–	< 2	9	–	CCc1c(F)ccc2cc3[nH]ncc3c(-c3ncc4c(N5CCC[C@]6(C5)NC(=O)NC6=O)nc(OC[C@@]56CCCN5C[C@H](F)C6)nc4c3F)c12 [Example 915, (5R)-7-(7-(5-ethyl-6-fluoro-1H-benzo[f]indazol-4-yl)-8-fluoro-2-(((2R,7aS)-2-fluorotetrahydro-1H-pyrrolizin-7a(5H)-yl)methoxy)pyrido[4,3-d]pyrimidin-4-yl)-1,3,7-triazaspiro[4.5]decane-2,4-dione]
